Measurements published in patent US5756423A, “Method of controlling plants by inhibition of farnesyl pyrophosphate synthase” (Zeneca Limited, priority 1997, dated 1998).
Like-named read-outs stand apart in the source and are kept apart here.

Assays:
[1] = system: farnesyl pyrophosphate synthase in daffodil chromoplasts; assay: inhibition of farnesyl pyrophosphate synthase in daffodil chromoplasts (14C-isopentenyl pyrophosphate incorporation); type: biochemical, Narcissus pseudonarcissus
Experimental: The IC50 value may be determined as follows. Daffodil chromoplasts are diluted to a volume of 500 microliters in a buffer containing 0.5M sucrose, 3 mM MgCl2, 1 mM ethylenediaminetetraacetic acid, 20 mM N-tris[hydroxymethyl]methyl-2-aminoethanesulfonic acid, […] N-[2-hydroxyethyl]-piperazine-N'-[2-ethanesulfonic acid], 5 mM L-cysteine, 10 mM sodium fluoride, and 0.1% bovine serum albumin at pH 7.7. The inhibitor to be tested may be dissolved in water other suitable solvent and then added to the reaction mixture. The assay is started by the addition of ^14 C-labeled isopentenyl pyrophosphate (52 Ci/mol) to give a final concentration in the assay of about 3 micromolar. The mixture is incubated at 30° C. with gentle agitation for a period of about 30 min. The reaction may be stopped by the addition of 0.5 mL of saturated NaCl and 2 mL of n-butanol saturated with water. After thorough mixing, the turbid suspensions are centrifuged briefly to separate the layers, and 1 mL of the bright yellow upper butanol layer is added to 10 mL of a suitable scintillation fluid which gives a single phase. The butanol soluble radioactivity is then measured in a scintillation counter.
In addition, the problem of variable quenching differences among different experiments can be essentially eliminated by determining the incorporation of radioactivity relative to controls. Each set of experiments requires two control tubes identical to the test samples except that they contain no inhibitor. One of these is quenched immediately (TO sample) and one is quenched at the end of the normal incubation period (T100 sample).
For each concentration of inhibitor examined the % residual activity is determined from the formula [formula]
Tightly closed daffodil flowers (Narcissus pseudonarcissus) were allowed to open at room temperature. […] Coronae were placed in twice their weight of isolation buffer consisting of 67 mM potassium phosphate, 0.74M sucrose, 5 mM MgCl2, and 0.2% polyvinyl-pyrrolidone at pH 7.6 and were disrupted by 30 seconds of homogenization at high speed in a Waring-type blender. The mixture was filtered through several layers of cheesecloth and 2 layers of 100 micron nylon mesh, and the resulting filtrate was centrifuged at 1000×g for 10 minutes. The pellet was discarded and supernatant was centrifuged at 22,000×g for 20 minutes. […] This solution was centrifuged at 22,000×g for 20 minutes to give orange pellets which were suspended in a buffer of 100 mM tris(hydroxymethyl)aminomethane at pH 7.6 containing 5mM MgCl2 and 2 mM dithiothreitol (1 ml per 10 coronae). This solution was frozen in liquid nitrogen and then stored at -80° C.
Thawed daffodil chromoplasts (100-150 microliters) were diluted to a final volume of 500 microliters in a buffer containing 0.5M sucrose, 3 mM MgCl2, 1 mM ethylenediaminetetraacetic acid, 10 mM N-[2-hydroxyethyl]piperazine-N^1 -[2-ethanesulfonic acid], 5 mM L-cysteine, 10 mM sodium fluoride, and 0.1% bovine serum albumin at pH 7.7. The inhibitor to be tested was dissolved in water or other suitable solvent and was added to the reaction mixture. The assay was started by the addition of ^14 C-labeled isopentenyl pyrophosphate (52 Ci/mol) to give a final concentration in the assay of about 3 micromolar. The mixture was incubated at 30° C. with gentle agitation for a period of about 30 minutes. The reaction was stopped by the addition of 0.5 mL of saturated NaCl and 2 mL of n-butanol saturated with water. After thorough mixing, the turbid suspensions were centrifuged briefly to separate the layers, and 1 mL of the bright yellow upper butanol layer was added to 10 mL of a suitable scintillation fluid which gave a single phase. The butanol soluble radioactivity was then measured in a scintillation counter. Each set of experiments required two control tubes identical to the test samples except that they contain no inhibitor.

[2] = system: wild oat (Avena fatua) (AVEFA); assay: post-emergent herbicidal test, wild oat; type: in vivo; conditions: post-emergent, 17-21 days after application; for pest or weed control at 1000 g/ha / pest or weed control at 4000 g/ha: Avena fatua, post-emergence, read-out: AVEFA percent control; for pest or weed control at 4000 g/ha: 4.0 kg/ha
Text: (§1) Seeds of several different weed species were planted in sandy loam soil containing only trace organic matter. Propagules were sown in individuals rows using one species per row across the width of an aluminum flat (19.5×9.5×6 cm). The grass weeds planted were green foxtail (Setaria viridis) ("SETVI"), wild oat (Avena fatua) ("AVEFA"), barnyard grass (Enchinochloa crusgalli) ("ECHCG"). Broadleaf weeds utilized were wild mustard (Brassica kaber), also known as Sinapis arvensis, ("SINAR"), velvetleaf (Abutilon theophrasti) ("ABUTH") and morningglory (Ipomoea spp.) ("IPOSS"). Additionally, yellow nutsedge (Cyperus esculentus) ("CYPES"), nutlets were sown. Seeding depths ranged from 1.0 to 1.5 cm and plant densities ranged from 3 to 25 plants per row depending on individual plant species.
(§2) The flats were placed into a greenhouse and watered overhead by sprinkling. The greenhouse environmental systems provided the plants with natural and artificial (via metal halide lamps) lighting to attain 14 hours of light per day. Day and night temperatures were maintained at 29° and 21° C. respectively. The plants were grown for 10 to 12 days (or to the appropriate growth stage) prior to compound application. Grasses were sprayed at a 3 to 4 leaf stage and broadleaves at a 1 to 2 leaf stage. Yellow nutsedge was 5 to 7 cm tall at application.
(§3) Solutions of the test compounds were prepared by weighing out 18.8 and 74.7 mg for 1 and 4 kg/ha applications respectively, of the test compound into a 60 ml wide-mouth bottle, then dissolving the compound in 14.0 ml of deionized water containing 0.5% v/v Tween 20' (polyoxyethylene sorbitan monolaurate emulsifier) as a surfactant. Additional solvents, not exceeding 2 ml (15% of spray volume), were used if needed to dissolve the compound.
(§4) The plants were sprayed inside an enclosed linear spray table with the nozzle set at 30.5 cm (12 inches) above the foliage.
(§5) Treated plants were then returned to a greenhouse and watered daily without wetting the foliage.
(§6) The degree of weed control was evaluated 17-21 days after application and recorded as percentage of control as compared to the growth of the same species in an untreated control flat of the same. Percent control is the total injury to the plants due to all factors including: inhibited emergence, stunting, malformation, chlorosis and other types of plant injury. The control ratings range from 0 to 100 percent, where 0% represents no effect with growth equal to the untreated control and where 100% represents complete kill.

[3] = system: barnyard grass (Enchinochloa crusgalli) (ECHCG); assay: post-emergent herbicidal test, barnyard grass; type: in vivo; conditions: post-emergent, 17-21 days after application; for pest or weed control at 1000 g/ha / pest or weed control at 4000 g/ha: Echinochloa crus-galli, post-emergence, read-out: ECHCG percent control; for pest or weed control at 4000 g/ha: 4.0 kg/ha
Text: as §1, §2, §3, §4, §5, §6

[4] = system: green foxtail (Setaria viridis) (SETVI); assay: post-emergent herbicidal test, green foxtail; type: in vivo; conditions: post-emergent, 17-21 days after application; for pest or weed control at 1000 g/ha / pest or weed control at 4000 g/ha: Setaria viridis, post-emergence, read-out: SETVI percent control; for pest or weed control at 4000 g/ha: 4.0 kg/ha
Text: as §1, §2, §3, §4, §5, §6

[5] = system: velvetleaf (Abutilon theophrasti) (ABUTH); assay: post-emergent herbicidal test, velvetleaf; type: in vivo; conditions: post-emergent, 17-21 days after application; for pest or weed control at 1000 g/ha / pest or weed control at 4000 g/ha: Abutilon theophrasti, post-emergence, read-out: ABUTH percent control; for pest or weed control at 4000 g/ha: 4.0 kg/ha
Text: as §1, §2, §3, §4, §5, §6

[6] = system: morningglory (Ipomoea spp.) (IPOSS); assay: post-emergent herbicidal test, morningglory; type: in vivo; conditions: post-emergent, 17-21 days after application; for pest or weed control at 1000 g/ha / pest or weed control at 4000 g/ha: Ipomoea, post-emergence, read-out: IPOSS percent control; for pest or weed control at 4000 g/ha: 4.0 kg/ha
Text: as §1, §2, §3, §4, §5, §6

[7] = system: wild mustard (Brassica kaber), also known as Sinapis arvensis (SINAR); assay: post-emergent herbicidal test, wild mustard; type: in vivo; conditions: post-emergent, 17-21 days after application; for pest or weed control at 1000 g/ha / pest or weed control at 4000 g/ha: Brassica, post-emergence, read-out: SINAR percent control; for pest or weed control at 4000 g/ha: 4.0 kg/ha
Text: as §1, §2, §3, §4, §5, §6

[8] = system: yellow nutsedge (Cyperus esculentus) (CYPES); assay: post-emergent herbicidal test, yellow nutsedge; type: in vivo; conditions: post-emergent, 17-21 days after application; for pest or weed control at 1000 g/ha / pest or weed control at 4000 g/ha: Cyperus, post-emergence, read-out: CYPES percent control; for pest or weed control at 4000 g/ha: 4.0 kg/ha
Text: as §1, §2, §3, §4, §5, §6

[9] = Table I, unit inferred, IC50 values in nM, read-out: IC50
[10] = Table II, unit inferred, IC50 values in nM, read-out: IC50

IC50 [1, 9] [nM] | IC50 [1, 10] [nM] | Compound | pest or weed control at 1000 g/ha ([2]; 1.0 kg/ha (*)) [%] | pest or weed control at 1000 g/ha ([3]; 1.0 kg/ha (*)) [%] | pest or weed control at 1000 g/ha ([4]; 1.0 kg/ha (*)) [%] | pest or weed control at 1000 g/ha ([5]; 1.0 kg/ha (*)) [%] | pest or weed control at 1000 g/ha ([6]; 1.0 kg/ha (*)) [%] | pest or weed control at 1000 g/ha ([7]; 1.0 kg/ha (*)) [%] | pest or weed control at 1000 g/ha ([8]; 1.0 kg/ha (*)) [%] | other results
31 | 31 | C=C(C)CNCC(P(=O)(O)O)P(=O)(O)O [Compound 34] | 95 | 95 | 95 | 60 | 60 | 100 | 15 | –
> 500000 | > 500000 | O=P(O)(O)C(CNNc1c(Cl)cc(C(F)(F)F)cc1Cl)P(=O)(O)O [Compound 36] | – | – | – | – | – | – | – | pest or weed control at 4000 g/ha [2]: 0%; pest or weed control at 4000 g/ha [3]: 0%; pest or weed control at 4000 g/ha [4]: 0%; pest or weed control at 4000 g/ha [5]: 0%; pest or weed control at 4000 g/ha [6]: 0%; pest or weed control at 4000 g/ha [7]: 0%; pest or weed control at 4000 g/ha [8]: 0%
1230 | 1230 | CC(NCC(P(=O)(O)O)P(=O)(O)O)c1ccccc1 (centres unmarked) [Compound 27] | – | – | – | – | – | – | – | AVEFA percent control ([2]; 1.0 kg/ha (*)): 80%; ECHCG percent control ([3]; 1.0 kg/ha (*)): 90%; SETVI percent control ([4]; 1.0 kg/ha (*)): 90%; ABUTH percent control ([5]; 1.0 kg/ha (*)): 75%; IPOSS percent control ([6]; 1.0 kg/ha (*)): 5%; SINAR percent control ([7]; 1.0 kg/ha (*)): 100%; CYPES percent control ([8]; 1.0 kg/ha (*)): 75%
240 | 240 | CCN(CC)CC(P(=O)(O)O)P(=O)(O)O [Compound 13] | 40 | 40 | 80 | 15 | 10 | 95 | 5 | –
209 | 209 | O=P(O)(O)C(O)(C1CCCCN1)P(=O)(O)O (centres unmarked) [Compound 9] | – | – | – | – | – | – | – | pest or weed control at 4000 g/ha [2]: 60%; pest or weed control at 4000 g/ha [3]: 30%; pest or weed control at 4000 g/ha [4]: 100%; pest or weed control at 4000 g/ha [5]: 30%; pest or weed control at 4000 g/ha [6]: 30%; pest or weed control at 4000 g/ha [7]: 100%; pest or weed control at 4000 g/ha [8]: 15%
6600 | 6600 | Cc1cccnc1NCC(P(=O)(O)O)P(=O)(O)O [Compound 31] | – | – | – | – | – | – | – | pest or weed control at 4000 g/ha [2]: 0%; pest or weed control at 4000 g/ha [3]: 0%; pest or weed control at 4000 g/ha [4]: 0%; pest or weed control at 4000 g/ha [5]: 0%; pest or weed control at 4000 g/ha [6]: 0%; pest or weed control at 4000 g/ha [7]: 0%; pest or weed control at 4000 g/ha [8]: 0%
112 | 112 | CCC1CCCCN1CC(P(=O)(O)O)P(=O)(O)O (centres unmarked) [Compound 53] | 98 | 100 | 98 | 70 | 30 | 90 | 5 | –
380 | 380 | O=P(O)(O)C(CNCC(F)(F)F)P(=O)(O)O [Compound 39] | 20 | 0 | 5 | 0 | 0 | 0 | 0 | –
87 | 87 | CCCCN(CCC)CC(P(=O)(O)O)P(=O)(O)O [Compound 52] | 100 | 100 | 100 | 75 | 20 | 100 | 20 | –
88 | 88 | C=CCN(CC)CC(P(=O)(O)O)P(=O)(O)O [Compound 40] | 85 | 90 | 80 | 10 | 10 | 95 | 10 | –
– | – | O=P(O)(O)C(Cn1ccnc1)P(=O)(O)O [Compound 64] | 100 | 98 | 100 | 75 | 100 | 100 | 30 | –
– | – | O=P(O)(O)C(Cc1ccccn1)P(=O)(O)O [2-(2,2-diphosphonic acid)ethylpyridine, reference compound] | – | – | – | – | – | – | – | IC50 ([1]; prior-art compounds, daffodil chromoplasts, read-out: IC50 value): 52 nM
